Source: the NIST ThermoML archive (doi:10.1021/je900977e)
Several values for one entry are separate records, joined by “and”; a condition that tells them apart may be missing. Equal entries are not always repeated. ± gives the expanded uncertainty stated by the source.

Settings: 313.15 K; Liquid; Closed cell (Static) method

vapor or sublimation pressure | Structure (SMILES)
24.4 ± 0.094 kPa and 24.38 ± 0.094 kPa | c1ccccc1 [benzene]
37.11 ± 0.14 kPa and 37.13 ± 0.14 kPa | CC(C)OC(C)C [diisopropyl ether]
13.9 ± 0.06 kPa and 13.89 ± 0.06 kPa | CC(C)O [propan-2-ol]
